≈ marks a conversion by molar mass, not a printed value. Read-outs that look alike come from different tables or passages of the source.
Assays:
[1] = test system: E. coli DH10B/pTU627 (PDC-90); assay: Broth microdilution MIC, isogenic E. coli expressing PDC-90; assay type: cell-based; conditions: Escherichia coli
Procedure: (§1) Genetic constructs used for minimum inhibitory concentration (MIC) testing were designed by Venatorx Pharmaceuticals and codon-optimized for use in E. coli and synthesized by Twist Bioscience as described previously ([9]). […] DH10B cells expressing an empty pET24a(+) vector (Novagen) were also grown, and the plasmid purified. Both pCR4-TOPO-PDC-88 and empty pET24a(+) were cut with BamHI and NdeI, the digests run on low-melting point agarose gels, and the bands of interest excised and ligated to yield a PDC-88 expressing pET24a(+) construct with the His tag removed. The PDC-3 expression construct was created in a similar manner but starting with a previously described pBC SK(−) vector ([42]). The final plasmids were grown in E. coli DH10B cells and purified.
(§2) Modal broth microdilution MICs (or median broth microdilution MICs where appropriate) were determined in accordance with Clinical and Laboratory Standards Institute (CLSI) M07 guidelines ([43]). Isogenic E. coli DH10B cells expressing the abovementioned plasmid-encoded PDC constructs were used. […] CLSI quality control strains Escherichia coli NCTC 13353, E. coli ATCC 35218, and Klebsiella pneumoniae ATCC 700603 were used during testing ([24]).

[2] = target: T1, PDC-3 (Pseudomonas aeruginosa, UniProt P24735, T105A); assay: Timed ESI-MS of acyl-enzyme formation, PDC-3; assay type: biochemical; conditions: timed ESI-MS, 1 to 30 min (ATM to 60 min)
T1 construct: The PDC-3 expression construct was created in a similar manner but starting with a previously described pBC SK(−) vector; made in house; host or cells: E. coli BL21-CodonPlus (DE3)-RP, pET24a(+)
Procedure: Timed ESI-MS experiments allow tracking of the reaction over time and determination of product modification, enabling the elucidation of mechanistic detail. Time courses were collected for both PDC-3 and PDC-88 with FEP (Fig. 4), CAZ (Fig. S1), TOL (Fig. S2), and ATM (Fig. S3). Substrate modification (here, loss of the R2 group) was determined based on differences between masses of apo and acyl-enzyme peaks (Fig. S4). […] Based on the differences in mass between the apo enzyme peaks, the acyl-enzyme peaks, and the molecular masses of each substrate, the mass of the adducts was determined and used to predict any portion of the substrate molecule that might be lost during the reaction (Fig. S4). As expected ([26][–][28]), all three cephalosporin antibiotics (FEP, CAZ, and TOL) lost their R2 groups during the reaction, while ATM (the sole monobactam) maintained its initial mass.
Five micrograms of PDC-3 or PDC-88 was incubated at the indicated molar ratio (1:2 to 1:100 PDC:β-lactam) in a total volume of 20 µL in 1× PBS at pH 7.4 at room temperature for the duration of the indicated time points. Reactions were quenched with the addition of 10 µL acetonitrile and added to 1 mL of 0.1% formic acid in water.
Data were collected using a Waters Synapt G2-Si quadrupole time-of-flight (Q-TOF) mass spectrometer and Waters Acquity UPLC BEH C18 1.7 µm column (2.1 by 100 mm). MassLynx V4.1 was used to deconvolute protein peaks. The tune settings for each sample were as follows: capillary voltage of 3.5 kV, sampling cone voltage of 35 V, source offset of 35 V, source temperature of 100°C, desolvation temperature of 500°C, cone gas flow rate of 100 L/h, desolvation gas flow rate of 800 L/h, and nebulizer bar at 6.0. Mobile phase A was 0.1% formic acid in water. Mobile phase B was 0.1% formic acid in acetonitrile. The mass accuracy of this system is ±5 Da.

[3] = test system: E. coli NCTC 13353; assay: Broth microdilution MIC, CLSI quality control strain; assay type: cell-based; conditions: Escherichia coli
Procedure: as §2

[4] = test system: P. aeruginosa isolates; conditions: 200 well-characterized P. aeruginosa isolates; cited from earlier work
[5] = test system: E. coli DH10B/pTU501 (vector); assay: Broth microdilution MIC, isogenic E. coli empty vector control; assay type: cell-based; conditions: Escherichia coli
Procedure: as §1, §2

[6] = target: T1, PDC-3; assay: Spectrophotometric β-lactam hydrolysis (progress curves, steady-state kinetics) by PDC-3; assay type: biochemical
Procedure: (§3) In order to determine the impact of the PDC-88 variant on hydrolysis, we determined hydrolysis progress curves for PDC-3, PDC-88, and a strongly hydrolyzing comparator (NDM-1 or PER-2) for cefepime (FEP, Fig. 3A), ceftazidime (CAZ, Fig. 3B), ceftolozane (TOL, Fig. 3C), and aztreonam (ATM, Fig. 3D).
(§4) β-Lactamase kinetic and inhibitor constants were determined using an Agilent 8453 UV-Visible Spectrophotometer to record progress curves and determine initial rates and other kinetic parameters as appropriate. Reactions were carried out in 1× phosphate-buffered saline (PBS) (pH 7.4) at room temperature in a 0.2 cm path-length quartz cuvette (Hellma Analytics). Reads were taken every 10 s to minimize UV-mediated background hydrolysis.
(§5) The extinction coefficients used were: nitrocefin, Δε482 = 17,400 M^−1 cm^−1, and cefepime, Δε260 = −10,000 M^−1 cm^−1.
(§6) The kinetic constants KM and Vmax were determined using a nonlinear least-squares regression of the data to the Henri-Michaelis-Menten equation (equation 1) in Origin Version 2020b (OriginLab, Northampton, MA), where v is the velocity of the reaction; Vmax is the theoretical maximum velocity; KM is the Michaelis constant; and [S] is the substrate concentration: […]

[7] = target: T2, PDC-88 (Pseudomonas aeruginosa, UniProt P24735, DEL316-317/G27D/G391A/T105A/V205L/V356I); assay: Spectrophotometric β-lactam hydrolysis (progress curves, steady-state kinetics) by PDC-88; assay type: biochemical
T2 construct: NdeI 5′-[…]-3ʹ and BamHI 5ʹ-[…]-3ʹ; His tag removed) (N); made in house; host or cells: E. coli BL21-CodonPlus (DE3)-RP, pET24a(+)
Procedure: as §3, §4, §5, §6

[8] = test system: PDC-88; assay: as above; assay type: biochemical, Pseudomonas aeruginosa; conditions: cefepime as substrate
Procedure: as §3, §4, §5, §6

[9] = test system: E. coli DH10B/pTU628 (PDC-91); assay: Broth microdilution MIC, isogenic E. coli expressing PDC-91; assay type: cell-based; conditions: Escherichia coli
Procedure: as §1, §2

[10] = FEP hydrolysis by PDC-3, 1× PBS pH 7.4, room temperature
[11] = FEP hydrolysis by PDC-88, 1× PBS pH 7.4, room temperature

`CO/N=C(\C(=O)N[C@@H]1C(=O)N2C(C(=O)[O-])=C(C[N+]3(C)CCCC3)CS[C@H]12)c1csc(N)n1` [FEP, cefepime] gave an MIC ([1]; read-out: MIC FEP AVI) of 0.5 mg/L (≈ 1.04 µM), an MIC ([1]; read-out: MIC FEP TZB) of 32 mg/L (≈ 66.6 µM) and an MIC ([1]; E. coli DH10B/pTU627 (PDC-90), FEP with TAN at constant 4 µg/mL, * median value reported, read-out: MIC FEP TAN) of 0.5 mg/L (≈ 1.04 µM). For the same molecule, the MIC ([1]; E. coli DH10B/pTU627 (PDC-90), read-out: MIC FEP Alone) was 64 mg/L (≈ 133 µM), the “acyl-enzyme complex formation and deacylation” value [2] was “did not form an acyl-enzyme complex” and the MIC ([3]; NCTC13353, read-out: MIC FEP Alone) was 64 mg/L (≈ 133 µM). The MIC ([3]; NCTC13353, read-out: MIC FEP TAN) was 0.12 mg/L (≈ 0.25 µM), the susceptibility of isolates [4] was 1.5% and the MIC ([5]; read-out: MIC FEP AVI) was 0.12 mg/L (≈ 0.25 µM). For the same molecule, the MIC ([5]; read-out: MIC FEP Alone) was 0.12 mg/L (≈ 0.25 µM), the MIC ([5]; read-out: MIC FEP TAN) was 0.12 mg/L (≈ 0.25 µM) and the MIC ([5]; read-out: MIC FEP TZB) was 0.12 mg/L (≈ 0.25 µM). The Km [6, 10] was 205 ± 9 µM, the kcat [6, 10] was 0.25 ± 0.02 s⁻¹ and the hydrolysis progress curve ([6]; PDC-3, over 900 s, versus UV-mediated background) was “slightly above background”. For the same molecule, the Km [7, 11] was 16 ± 1 µM, the kcat [7, 11] was 0.16 ± 0.01 s⁻¹ and the hydrolysis progress curve ([7]; PDC-88, over 900 s, compared to PDC-3) was “increased hydrolysis”. The “decrease of KM, PDC-88 compared to PDC-3” value [8] was 12.8 fold, the “decrease of kcat, PDC-88 compared to PDC-3” value [8] was 1.6 fold and the “higher catalytic efficiency (kcat/KM) of PDC-88 compared to PDC-3” value [8] was “approximately 8.3 fold”. For the same molecule, the “higher catalytic efficiency (kcat/KM) of PDC-88 compared to PDC-3” value ([8]; listed as cefepime) was 8.3 fold, the MIC ([9]; read-out: MIC FEP AVI) was 0.5 mg/L (≈ 1.04 µM) and the MIC ([9]; read-out: MIC FEP TZB) was 32 mg/L (≈ 66.6 µM). It also gave an MIC ([9]; E. coli DH10B/pTU628 (PDC-91), FEP with TAN at constant 4 µg/mL, read-out: MIC FEP TAN) of 0.5 mg/L (≈ 1.04 µM) and an MIC ([9]; E. coli DH10B/pTU628 (PDC-91), read-out: MIC FEP Alone) of 32 mg/L (≈ 66.6 µM).
